# Source: article PMC11823630, “In vitro potentiation of tetracyclines in Pseudomonas aeruginosa by RW01, a new cyclic peptide” (Antimicrobial Agents and Chemotherapy, 2024)
# Columns and labels:
# P. aeruginosa 125A = assay: MIC, CLSI broth microdilution in BD Phoenix AST Broth; assay type: cell-based, Pseudomonas aeruginosa; conditions: strain 125A
# P. aeruginosa 125B = assay: as above; assay type: cell-based, Pseudomonas aeruginosa; conditions: strain 125B
# P. aeruginosa 41A = assay: as above; assay type: cell-based, Pseudomonas aeruginosa; conditions: strain 41A
# P. aeruginosa 41B = assay: as above; assay type: cell-based, Pseudomonas aeruginosa; conditions: strain 41B
# P. aeruginosa PAO1 = assay: as above; assay type: cell-based, Pseudomonas aeruginosa
# P. aeruginosa PAOUW = assay: as above; assay type: cell-based, Pseudomonas aeruginosa; conditions: strain PAOUW
# P. aeruginosa PAOUW∆oprF = assay: as above; assay type: cell-based, Pseudomonas aeruginosa
# P. aeruginosa PAOΔmexR = assay: as above; assay type: cell-based, Pseudomonas aeruginosa
# P. aeruginosa PAOΔmexZ = assay: as above; assay type: cell-based, Pseudomonas aeruginosa; conditions: strain PAOΔmexZ
# P. aeruginosa PAOΔoprM = assay: as above; assay type: cell-based, Pseudomonas aeruginosa
# [1] = tested on: PAO1 mutant MIN2_RW01_2, pmrB(M292T); assay: MIC, E-test on MHA; assay type: cell-based; conditions: Pseudomonas aeruginosa, PAO1, read-out: MIC, E-test
# [2] = tested on: PAO1 mutant MIN2_RW01_3, parS(V152A); assay: MIC, E-test on MHA; assay type: cell-based; conditions: Pseudomonas aeruginosa, PAO1, read-out: MIC, E-test
# [3] = tested on: PAO1 mutant MIN4_RW01_4, pmrB(Y98N); assay: MIC, E-test on MHA; assay type: cell-based; conditions: Pseudomonas aeruginosa, PAO1, read-out: MIC, E-test
# [4] = tested on: PAO1 mutant MIN8_1, nalD(R3C), pilM(Q62X); assay: MIC, E-test on MHA; assay type: cell-based; conditions: Pseudomonas aeruginosa, PAO1, read-out: MIC, E-test
# [5] = tested on: PAO1 mutant MIN8_2, pilZ(nt18InsT); assay: MIC, E-test on MHA; assay type: cell-based; conditions: Pseudomonas aeruginosa, PAO1, read-out: MIC, E-test
# [6] = tested on: PAO1 mutant MIN8_3, pilZ(nt18InsT); assay: MIC, E-test on MHA; assay type: cell-based; conditions: Pseudomonas aeruginosa, PAO1, read-out: MIC, E-test
# [7] = tested on: PAO1 mutant MIN16_1, nalD(T43P); assay: MIC, E-test on MHA; assay type: cell-based; conditions: Pseudomonas aeruginosa, PAO1, read-out: MIC, E-test
# [8] = tested on: PAO1 mutant MIN16_3, nfxB(nt79∆14), pilB(N349K); assay: MIC, E-test on MHA; assay type: cell-based; conditions: Pseudomonas aeruginosa, PAO1, read-out: MIC, E-test
# [9] = Pseudomonas aeruginosa, agent alone, 37°C, 18–22 h, three biological replicates
# [10] = antibiotic MIC alone vs with RW01 100 mg/L
# [11] = antibiotic with RW01 at 100 mg/L
# [12] = MIC of the antibiotic with fixed 100 mg/L RW01
# [13] = strain PAO1, antibiotic with RW01 at 100 mg/L
# [14] = strain PAOUWΔoprF (printed PAOΔoprF), antibiotic with RW01 at 100 mg/L
# [15] = strain PAOΔmexR, antibiotic with RW01 at 100 mg/L
# [16] = strain PAOΔoprM, antibiotic with RW01 at 100 mg/L
structure (smiles),measurement,setting,value
"C[C@H]1c2cccc(O)c2C(=O)C2=C(O)[C@]3(O)C(=O)C(C(N)=O)=C(O)[C@@H](N(C)C)[C@@H]3[C@@H](O)[C@@H]21 [Doxycycline, doxycycline]",MIC,P. aeruginosa 125A; [9],4 µg/mL
same,Potentiation (fold),P. aeruginosa 125A; [10],8 fold
same,FICI,P. aeruginosa 125A; [11],0.320
same,FICI-determined effect,P. aeruginosa 125A; [11],Synergy (synergistic effect if FICI is ≤0.5)
same,MIC,P. aeruginosa 125B; [9],4 µg/mL
same,Antibiotic MIC + RW01 100 mg/L,P. aeruginosa 125B; [12],0.5 µg/mL
same,Potentiation (fold),P. aeruginosa 125B; [10],8 fold
same,FICI,P. aeruginosa 125B; [11],0.320
same,FICI-determined effect,P. aeruginosa 125B; [11],Synergy (synergistic effect if FICI is ≤0.5)
same,MIC,P. aeruginosa 41A; [9],16 µg/mL
same,Antibiotic MIC + RW01 100 mg/L,P. aeruginosa 41A; [12],2 µg/mL
same,Potentiation (fold),P. aeruginosa 41A; [10],8 fold
same,FICI,P. aeruginosa 41A; [11],0.223
same,FICI-determined effect,P. aeruginosa 41A; [11],Synergy (synergistic effect if FICI is ≤0.5)
same,MIC,P. aeruginosa 41B; [9],16 µg/mL
same,Antibiotic MIC + RW01 100 mg/L,P. aeruginosa 41B; [12],2 µg/mL
same,Potentiation (fold),P. aeruginosa 41B; [10],8 fold
same,FICI,P. aeruginosa 41B; [11],0.223
same,FICI-determined effect,P. aeruginosa 41B; [11],Synergy (synergistic effect if FICI is ≤0.5)
same,MIC,"P. aeruginosa PAO1; Pseudomonas aeruginosa, PAO1, strain PAO1, agent alone, 37°C, 18–22 h, three biological replicates, read-out: MIC",16 µg/mL
same,Antibiotic MIC + RW01 100 mg/L,"P. aeruginosa PAO1; strain PAO1, MIC of the antibiotic with fixed 100 mg/L RW01",1 µg/mL
same,Potentiation (fold),"P. aeruginosa PAO1; strain PAO1, antibiotic MIC alone vs with RW01 100 mg/L",16 fold
same,FICI,P. aeruginosa PAO1; [13],0.258
same,FICI-determined effect,P. aeruginosa PAO1; [13],Synergy (synergistic effect if FICI is ≤0.5)
same,MIC,"P. aeruginosa PAOUW; Pseudomonas aeruginosa, agent alone, 37°C, 18–22 h, three biological replicates, read-out: MIC",32 µg/mL
same,Antibiotic MIC + RW01 100 mg/L,P. aeruginosa PAOUW; [12],4 µg/mL
same,Potentiation (fold),P. aeruginosa PAOUW; [10],8 fold
same,FICI,P. aeruginosa PAOUW; [11],0.223
same,FICI-determined effect,P. aeruginosa PAOUW; [11],Synergy (synergistic effect if FICI is ≤0.5)
same,MIC,"P. aeruginosa PAOUW∆oprF; Pseudomonas aeruginosa, strain PAOUWΔoprF, agent alone, 37°C, 18–22 h, three biological replicates",16 µg/mL
same,Potentiation (fold),"P. aeruginosa PAOUW∆oprF; strain PAOUWΔoprF (printed PAOΔoprF), antibiotic MIC alone vs with RW01 100 mg/L",16 fold
same,FICI,P. aeruginosa PAOUW∆oprF; [14],0.160
same,FICI-determined effect,P. aeruginosa PAOUW∆oprF; [14],Synergy (synergistic effect if FICI is ≤0.5)
same,Antibiotic MIC + RW01 100 mg/L,"P. aeruginosa PAOUW∆oprF; strain PAOUWΔoprF, MIC of the antibiotic with fixed 100 mg/L RW01",1 µg/mL
same,MIC,P. aeruginosa PAOΔmexR; Pseudomonas aeruginosa,64 µg/mL
same,Antibiotic MIC + RW01 100 mg/L,"P. aeruginosa PAOΔmexR; strain PAOΔmexR, MIC of the antibiotic with fixed 100 mg/L RW01",32 µg/mL
same,Potentiation (fold),"P. aeruginosa PAOΔmexR; strain PAOΔmexR, antibiotic MIC alone vs with RW01 100 mg/L",2 fold
same,FICI,P. aeruginosa PAOΔmexR; [15],0.598
same,FICI-determined effect,P. aeruginosa PAOΔmexR; [15],Additivity (additive effect if 0.5 < FICI ≤ 1.0)
same,MIC,P. aeruginosa PAOΔmexZ; [9],64 µg/mL
same,Antibiotic MIC + RW01 100 mg/L,P. aeruginosa PAOΔmexZ; [12],4 µg/mL
same,Potentiation (fold),P. aeruginosa PAOΔmexZ; [10],16 fold
same,FICI,P. aeruginosa PAOΔmexZ; [11],0.160
same,FICI-determined effect,P. aeruginosa PAOΔmexZ; [11],Synergy (synergistic effect if FICI is ≤0.5)
same,MIC,P. aeruginosa PAOΔoprM; Pseudomonas aeruginosa,0.5 µg/mL
same,Antibiotic MIC + RW01 100 mg/L,"P. aeruginosa PAOΔoprM; strain PAOΔoprM, MIC of the antibiotic with fixed 100 mg/L RW01",0.125 µg/mL
same,Potentiation (fold),"P. aeruginosa PAOΔoprM; strain PAOΔoprM, antibiotic MIC alone vs with RW01 100 mg/L",4 fold
same,FICI,P. aeruginosa PAOΔoprM; [16],0.348
same,FICI-determined effect,P. aeruginosa PAOΔoprM; [16],Synergy (synergistic effect if FICI is ≤0.5)
same,MIC,[1],128 µg/mL
same,MIC,[2],256 µg/mL
same,MIC,[3],64 µg/mL
same,MIC,[4],256 µg/mL
same,MIC,[5],256 µg/mL
same,MIC,[6],128 µg/mL
same,MIC,[7],256 µg/mL
same,MIC,[8],192 µg/mL
